Laboratory results published in patent US4742053A, “3-Isoquinoliniomethyl cephalosporin derivatives” (Banyu Pharmaceutical Co., Ltd., priority 1984, dated 1988).
Converted amounts (≈) assume the structure as drawn. Where two headings read alike, the source gives them in different places.

What was measured:
Assay in all cases: MIC by agar plate dilution method
Format in all cases: cell-based
A. calcoaceticus No. 14 = details: Acinetobacter calcoaceticus, NO.14, A. calcoaceticus No. 14; 10^6 CFU/ml; read-out: Minimum Inhibitory Concentration
Procedure: (§1) The minimum inhibitory concentrations (MIC: μg/ml) of the compounds of the present invention against various microorganisms were measured by an agar plate dilution method (inoculum size: 10^6 CFU/ml) by using Sensitivity Disk Agar (Nissui) in comparison with Cefotaxime and Ceftazidime as comparative compounds.
(§2) Minimum Inhibitory Concentration (μg/ml; 10^6 CFU/ml)

C. freundii No. 7 = details: Citrobacter freundii; C. freundii No. 7; 10^6 CFU/ml; read-out: Minimum Inhibitory Concentration
Procedure: as §1, §2

E. cloaceae Nek 39 = details: E. cloaceae Nek 39; 10^6 CFU/ml; read-out: Minimum Inhibitory Concentration
Procedure: as §1, §2

E. coli C/Rms149 = details: Escherichia coli, read-out: Minimum Inhibitory Concentration, E. coli C/Rms149; 10^6 CFU/ml
Procedure: as §1, §2

E. coli CSH2 = details: Escherichia coli, 10^6 CFU/ml, read-out: Minimum Inhibitory Concentration
Procedure: as §1, §2

E. coli CSH = details: Escherichia coli, 10^6 CFU/ml, read-out: Minimum Inhibitory Concentration
Procedure: as §1, §2

E. coli ML1410/Rte16 = details: Escherichia coli, ML1410/RTE16, read-out: Minimum Inhibitory Concentration, E. coli ML1410/Rte16; 10^6 CFU/ml
Procedure: as §1, §2

E. coli NIHJJC-2 = details: Escherichia coli, NIHJJC2, E. coli NIHJJC-2; 10^6 CFU/ml; read-out: Minimum Inhibitory Concentration
Procedure: as §1, §2

E. coli W3630/Rms212 = details: Escherichia coli, W3630/RMS212, read-out: Minimum Inhibitory Concentration, E. coli W3630/Rms212; 10^6 CFU/ml
Procedure: as §1, §2

E. coli W3630/Rms213 = details: Escherichia coli, W3630/RMS213, read-out: Minimum Inhibitory Concentration, E. coli W3630/Rms213; 10^6 CFU/ml
Procedure: as §1, §2

K. pneumoniae No. 42 = details: Klebsiella pneumoniae; K. pneumoniae No. 42; 10^6 CFU/ml; read-out: Minimum Inhibitory Concentration
Procedure: as §1, §2

P. aeruginosa AK109 = details: Pseudomonas aeruginosa, AK109, P. aeruginosa AK109; 10^6 CFU/ml; read-out: Minimum Inhibitory Concentration
Procedure: as §1, §2

P. aeruginosa AKR17 = details: Pseudomonas aeruginosa, AKR17, P. aeruginosa AKR17; 10^6 CFU/ml; read-out: Minimum Inhibitory Concentration
Procedure: as §1, §2

P. cepacia 23 = details: Burkholderia cepacia; P. cepacia 23; 10^6 CFU/ml; read-out: Minimum Inhibitory Concentration
Procedure: as §1, §2

P. maltophilia IID 1275 = details: Stenotrophomonas maltophilia, IID1275; P. maltophilia IID 1275; 10^6 CFU/ml; read-out: Minimum Inhibitory Concentration
Procedure: as §1, §2

P. mirabilis JY10 = details: Proteus mirabilis; P. mirabilis JY10; 10^6 CFU/ml; read-out: Minimum Inhibitory Concentration
Procedure: as §1, §2

P. vulgaris No. 33 = details: Proteus vulgaris
Procedure: as §1, §2

P. vulgaris OB1043 = details: Proteus vulgaris, OB1043, P. vulgaris OB1043; 10^6 CFU/ml; read-out: Minimum Inhibitory Concentration
Procedure: as §1, §2

S. aureus JS-1 = details: Staphylococcus aureus, JS1; S. aureus JS-1; 10^6 CFU/ml; read-out: Minimum Inhibitory Concentration
Procedure: as §1, §2

S. aureus NIHJJC-1 = details: Staphylococcus aureus, NIHJJC1, S. aureus NIHJJC-1; 10^6 CFU/ml; read-out: Minimum Inhibitory Concentration
Procedure: as §1, §2

S. marcescens No. 16-2 = details: Serratia marcescens, NO.162; S. marcescens No. 16-2; 10^6 CFU/ml; read-out: Minimum Inhibitory Concentration
Procedure: as §1, §2

[1] = NO.33, read-out: Minimum Inhibitory Concentration

SMILES	MIC (A. calcoaceticus No. 14) [µg/mL]	MIC (C. freundii No. 7) [µg/mL]	MIC (E. cloaceae Nek 39) [µg/mL]	MIC (E. coli C/Rms149) [µg/mL]	MIC (E. coli CSH2) [µg/mL]	MIC (E. coli CSH) [µg/mL]	MIC (E. coli ML1410/Rte16) [µg/mL]	MIC (E. coli NIHJJC-2) [µg/mL]	MIC (E. coli W3630/Rms212) [µg/mL]	MIC (E. coli W3630/Rms213) [µg/mL]	MIC (K. pneumoniae No. 42) [µg/mL]	MIC (P. aeruginosa AK109) [µg/mL]	MIC (P. aeruginosa AKR17) [µg/mL]	MIC (P. cepacia 23) [µg/mL]	MIC (P. maltophilia IID 1275) [µg/mL]	MIC (P. mirabilis JY10) [µg/mL]	MIC (P. vulgaris OB1043) [µg/mL]	MIC (S. aureus JS-1) [µg/mL]	MIC (S. aureus NIHJJC-1) [µg/mL]	MIC (S. marcescens No. 16-2) [µg/mL]	further results
C[N+]1(CC2=C(C(=O)[O-])N3C(=O)C(NC(=O)C(=NOC4(C(=O)O)CC4)c4csc(N)n4)C3SC2)CCc2cc(O)c(O)cc2C1 (stereo not drawn) [Ex. 17-E, 7-[(Z)-2-(2-aminothiazol-4-yl)-2-(1-carboxy-1-cyclopropoxyimino)acetamido]-3-(6,7-dihydroxy-2-methyl-1,2,3,4-tetrahydro-2-isoquinolinium)methyl-3-cephem-4-carboxylate]	0.1 (≈ 0.155 µM)	1.56 (≈ 2.42 µM)	≤ 0.05	≤ 0.05	≤ 0.05	≤ 0.05	≤ 0.05	≤ 0.05	≤ 0.05	≤ 0.05	≤ 0.05	≤ 0.05	0.1 (≈ 0.155 µM)	≤ 0.05	1.56 (≈ 2.42 µM)	≤ 0.05	≤ 0.05	> 25	12.5 (≈ 19.4 µM)	0.39 (≈ 0.605 µM)	MIC (P. vulgaris No. 33; [1]): ≤ 0.05 µg/mL
C[N+]1(CC2=C(C(=O)[O-])N3C(=O)C(NC(=O)C(=NOC4(C(=O)O)CCCC4)c4csc(N)n4)C3SC2)CCc2cc(O)c(O)cc2C1 (stereo not drawn) [Ex. 18-G, 7-[(Z)-2-(2-aminothiazol-4-yl)-2-(1-carboxy-1 cyclopentyloxyimino)acetamido]-3-(6,7-dihydroxy-2-methyl-1,2,3,4-tetrahydro-2-isoquinolinium)methyl-3-cephem-4-carboxylate]	3.12 (≈ 4.64 µM)	0.78 (≈ 1.16 µM)	0.1 (≈ 0.149 µM)	0.78 (≈ 1.16 µM)	0.78 (≈ 1.16 µM)	0.78 (≈ 1.16 µM)	0.2 (≈ 0.297 µM)	0.39 (≈ 0.58 µM)	0.39 (≈ 0.58 µM)	0.78 (≈ 1.16 µM)	1.56 (≈ 2.32 µM)	0.2 (≈ 0.297 µM)	0.78 (≈ 1.16 µM)	0.2 (≈ 0.297 µM)	100 (≈ 149 µM)	6.25 (≈ 9.29 µM)	1.56 (≈ 2.32 µM)	> 100	25 (≈ 37.2 µM)	12.5 (≈ 18.6 µM)	MIC (P. vulgaris No. 33; P. vulgaris No. 33, 10^6 CFU/ml, read-out: Minimum Inhibitory Concentration): 6.25 µg/mL (≈ 9.29 µM)
C[N+]1(CC2=C(C(=O)[O-])N3C(=O)C(NC(=O)C(=NOC4(C(=O)O)CCC4)c4csc(N)n4)C3SC2)CCc2cc(O)c(O)cc2C1 (stereo not drawn) [Ex. 19, 7-[(Z)-2-(2-aminothiazol-4-yl)-2-(1-carboxy-1-cyclobutoxyimiino)acetamide]-3-(6,7-dihydroxy-2-methyl-1,2,3,4-tetrahydro2-isoquinolinium)methyl-3-cephem-4-carboxylate]	0.2 (≈ 0.304 µM)	0.78 (≈ 1.18 µM)	0.1 (≈ 0.152 µM)	0.025 (≈ 0.038 µM)	0.05 (≈ 0.0759 µM)	0.05 (≈ 0.0759 µM)	0.025 (≈ 0.038 µM)	0.05 (≈ 0.0759 µM)	0.025 (≈ 0.038 µM)	0.025 (≈ 0.038 µM)	0.05 (≈ 0.0759 µM)	0.025 (≈ 0.038 µM)	0.1 (≈ 0.152 µM)	0.0125 (≈ 0.019 µM)	3.12 (≈ 4.74 µM)	0.1 (≈ 0.152 µM)	0.05 (≈ 0.0759 µM)	100 (≈ 152 µM)	25 (≈ 38 µM)	0.39 (≈ 0.592 µM)	MIC (P. vulgaris No. 33; [1]): 0.05 µg/mL (≈ 0.0759 µM)
